Tests used:
Type in all cases: in vivo
[1] = test system: Kochia (Kochia scoparia); assay: Test A preemergence
Procedure, shortened: (§1)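 Seeded soil received test chemicals as a preemergence directed spray, and seedlings at one to two leaves, 2–10 cm tall, received them postemergence, in a non-phytotoxic, surfactant-containing solvent mixture. Pots were held in a greenhouse for approximately 10 d, then rated for injury from 0, no effect, to 100, complete control.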

[2] = test system: barnyardgrass (Echinochloa crus-galli); assay: Test A preemergence
Procedure, shortened: as §1

[3] = test system: giant foxtail (Setaria faberii); assay: Test A preemergence
Procedure, shortened: as §1

[4] = test system: pigweed (Amaranthus retroflexus); assay: Test A preemergence
[5] = test system: ragweed (common ragweed, Ambrosia elatior); assay: Test A preemergence
Procedure, shortened: as §1

[6] = test system: ryegrass, Italian (Italian ryegrass, Lolium multiflorum); assay: Test A preemergence
Procedure, shortened: as §1

[7] = test system: Galium (catchweed bedstraw, Galium aparine); assay: Test A postemergence; settings: postemergence, 0 to 100 scale (0 no effect, 100 complete control)
Procedure, shortened: as §1

[8] = test system: Kochia (Kochia scoparia); assay: Test A postemergence; settings: postemergence, 0 to 100 scale (0 no effect, 100 complete control)
Procedure, shortened: as §1

[9] = test system: barnyardgrass (Echinochloa crus-galli); assay: Test A postemergence; settings: postemergence, 0 to 100 scale (0 no effect, 100 complete control)
Procedure, shortened: as §1

[10] = test system: blackgrass (Alopecurus myosuroides); assay: Test A postemergence; settings: postemergence, 0 to 100 scale (0 no effect, 100 complete control)
Procedure, shortened: as §1

[11] = test system: corn (Zea mays); assay: Test A postemergence; settings: postemergence, 0 to 100 scale (0 no effect, 100 complete control)
Procedure, shortened: as §1

[12] = test system: giant foxtail (Setaria faberii); assay: Test A postemergence; settings: postemergence, 0 to 100 scale (0 no effect, 100 complete control)
Procedure, shortened: as §1

[13] = test system: pigweed (Amaranthus retroflexus); assay: Test A postemergence; settings: postemergence, 0 to 100 scale (0 no effect, 100 complete control)
Procedure, shortened: as §1

[14] = test system: ragweed (common ragweed, Ambrosia elatior); assay: Test A postemergence; settings: postemergence, 0 to 100 scale (0 no effect, 100 complete control)
Procedure, shortened: as §1

[15] = test system: ryegrass, Italian (Italian ryegrass, Lolium multiflorum); assay: Test A postemergence; settings: postemergence, 0 to 100 scale (0 no effect, 100 complete control)
Procedure, shortened: as §1

[16] = test system: wheat (Triticum aestivum); assay: Test A postemergence; settings: postemergence, 0 to 100 scale (0 no effect, 100 complete control)
Procedure, shortened: as §1

[17] = test system: barnyardgrass (Echinochloa crus-galli); assay: Test B flooded paddy test; settings: Flood, 250 g ai/ha; 0 to 100 scale where 0 is no effect and 100 is complete control; 13 to 15 d
Procedure, shortened: (§2)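 Greenhouse paddy pots with 2-leaf stage plants received compound by direct addition to floodwater 3 cm deep, kept at that level. Scored visually at 13–15 d versus controls (0 no effect; 100 complete control).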

[18] = test system: ducksalad (Heteranthera limosa); assay: Test B flooded paddy test; settings: Flood, 250 g ai/ha; 0 to 100 scale where 0 is no effect and 100 is complete control; 13 to 15 d
Procedure, shortened: as §2

[19] = test system: rice (Oryra sativa); assay: Test B flooded paddy test; settings: Flood, 250 g ai/ha; 0 to 100 scale where 0 is no effect and 100 is complete control; 13 to 15 d
Procedure, shortened: as §2

[20] = test system: sedge, umbrella (small-flower umbrella sedge, Cyperus difformis); assay: Test B flooded paddy test; settings: Flood, 250 g ai/ha; 0 to 100 scale where 0 is no effect and 100 is complete control; 13 to 15 d
Procedure, shortened: as §2

[21] = test system: barnyardgrass (Echinochloa crus-galli); assay: Test C flooded paddy test; settings: Flood; for Plant response rating, Barnyardgrass: 31 g ai/ha, scale 0 to 100 (0 no effect, 100 complete control), 13 to 15 d; for Plant response rating (scale of 0 to 100), Barnyardgrass: 0 is no effect, 100 is complete control
Source text: (§3) Plant species in the flooded paddy test consisted of rice (Oryza sativa), sedge, umbrella (small-flower umbrella sedge, Cyperus difformis), ducksalad (Heteranthera limosa), and barnyardgrass (Echinochloa crus-galli) grown to the 2-leaf stage for testing. At time of treatment, test pots were flooded to 3 cm above the soil surface, treated by application of test compounds directly to the paddy water, and then maintained at that water depth for the duration of the test. Treated plants and controls were maintained in a greenhouse for 13 to 15 d, after which time all species were compared to controls and visually evaluated. Plant response ratings, summarized in Table C, are based on a scale of 0 to 100 where 0 is no effect and 100 is complete control. A dash (-) response means no test result.

[22] = test system: ducksalad (Heteranthera limosa); assay: Test C flooded paddy test; settings: Flood; for Plant response rating, Ducksalad: 31 g ai/ha, scale 0 to 100 (0 no effect, 100 complete control), 13 to 15 d; for Plant response rating (scale of 0 to 100), Ducksalad: 0 is no effect, 100 is complete control
Source text: as §3

[23] = test system: rice (Oryza sativa); assay: Test C flooded paddy test; settings: Flood; for Plant response rating, Rice: 31 g ai/ha, scale 0 to 100 (0 no effect, 100 complete control), 13 to 15 d; for Plant response rating (scale of 0 to 100), Rice: 0 is no effect, 100 is complete control
Source text: as §3

[24] = test system: sedge, umbrella (small-flower umbrella sedge, Cyperus difformis); assay: Test C flooded paddy test; settings: Flood; for Plant response rating, Sedge, Umbrella: 31 g ai/ha, scale 0 to 100 (0 no effect, 100 complete control), 13 to 15 d; for Plant response rating (scale of 0 to 100), Sedge, Umbrella: 0 is no effect, 100 is complete control
Source text: as §3

[25] = 125 g ai/ha, Preemergence, visual injury after approximately 10 d, 0 to 100 scale where 0 is no effect and 100 is complete control
[26] = 500 g ai/ha, preemergence, 0 to 100 scale, 0 = no effect, 100 = complete control
[27] = 125 g ai/ha, visual rating after approx. 10 d
[28] = 500 g ai/ha, visual injury, approx. 10 d

Structure (SMILES): Cc1ccc(C2CN(C)C(=O)C2C(=O)Nc2ccccc2F)cc1 (centres unmarked) [Compound 661]
- Plant response rating, Kochia [1, 25]: 50
- Plant response rating, Kochia [1, 26]: 70
- Plant response rating, Barnyardgrass [2, 25]: 90
- Plant response rating, Barnyardgrass [2, 26]: 90
- Plant response rating, Foxtail, Giant [3, 25]: 90
- Plant response rating, Foxtail, Giant [3, 26]: 100
- Plant response rating, Pigweed [4, 25]: 0
- Plant response rating, Pigweed [4, 26]: 40
- Plant response rating, Ragweed [5, 25]: 70
- Plant response rating, Ragweed [5, 26]: 80
- Plant response rating, Ryegrass, Italian [6, 25]: 30
- Plant response rating, Ryegrass, Italian [6, 26]: 50
- Plant response rating, Galium [7, 27]: 50
- Plant response rating, Galium [7, 28]: 60
- Plant response rating, Kochia [8, 27]: 60
- Plant response rating, Kochia [8, 28]: 70
- Plant response rating, Barnyardgrass [9, 27]: 90
- Plant response rating, Barnyardgrass [9, 28]: 90
- Plant response rating, Blackgrass [10, 27]: 50
- Plant response rating, Blackgrass [10, 28]: 70
- Plant response rating, Corn [11, 27]: 50
- Plant response rating, Corn [11, 28]: 90
- Plant response rating, Foxtail, Giant [12, 27]: 90
- Plant response rating, Foxtail, Giant [12, 28]: 90
- Plant response rating, Pigweed [13, 27]: 0
- Plant response rating, Pigweed [13, 28]: 0
- Plant response rating, Ragweed [14, 27]: 10
- Plant response rating, Ragweed [14, 28]: 50
- Plant response rating, Ryegrass, Italian [15, 27]: 30
- Plant response rating, Ryegrass, Italian [15, 28]: 80
- Plant response rating, Wheat [16, 27]: 30
- Plant response rating, Wheat [16, 28]: 80
- Plant response rating, Barnyardgrass [17]: 80
- Plant response rating, Ducksalad [18]: 100
- Plant response rating, Rice [19]: 10
- Plant response rating, Sedge, Umbrella [20]: 0
- Plant response rating, Barnyardgrass [21]: 25
- Plant response rating (scale of 0 to 100), Barnyardgrass ([21]; 62 g ai/ha): 70
- Plant response rating (scale of 0 to 100), Barnyardgrass ([21]; 125 g ai/ha): 80
- Plant response rating (scale of 0 to 100), Barnyardgrass ([21]; 250 g ai/ha): 85
- Plant response rating, Ducksalad [22]: 65
- Plant response rating (scale of 0 to 100), Ducksalad ([22]; 62 g ai/ha): 75
- Plant response rating (scale of 0 to 100), Ducksalad ([22]; 125 g ai/ha): 95
- Plant response rating (scale of 0 to 100), Ducksalad ([22]; 250 g ai/ha): 100
- Plant response rating, Rice [23]: 0
- Plant response rating (scale of 0 to 100), Rice ([23]; 62 g ai/ha): 0
- Plant response rating (scale of 0 to 100), Rice ([23]; 125 g ai/ha): 0
- Plant response rating (scale of 0 to 100), Rice ([23]; 250 g ai/ha): 10
- Plant response rating, Sedge, Umbrella [24]: 0
- Plant response rating (scale of 0 to 100), Sedge, Umbrella ([24]; 62 g ai/ha): 0
- Plant response rating (scale of 0 to 100), Sedge, Umbrella ([24]; 125 g ai/ha): 0
- Plant response rating (scale of 0 to 100), Sedge, Umbrella ([24]; 250 g ai/ha): 0

Structure (SMILES): CN1CC(c2cc(F)cc(F)c2)C(C(=O)Nc2ccc(F)cc2F)C1=O (centres unmarked) [Compound 645]
- Plant response rating, Kochia [1, 25]: 0
- Plant response rating, Kochia [1, 26]: 60
- Plant response rating, Barnyardgrass [2, 25]: 90
- Plant response rating, Barnyardgrass [2, 26]: 90
- Plant response rating, Foxtail, Giant [3, 25]: 90
- Plant response rating, Foxtail, Giant [3, 26]: 90
- Plant response rating, Pigweed [4, 25]: 0
- Plant response rating, Pigweed [4, 26]: 50
- Plant response rating, Ragweed [5, 25]: 0
- Plant response rating, Ragweed [5, 26]: 20
- Plant response rating, Ryegrass, Italian [6, 25]: 20
- Plant response rating, Ryegrass, Italian [6, 26]: 60
- Plant response rating, Galium [7, 27]: 50
- Plant response rating, Galium [7, 28]: 50
- Plant response rating, Kochia [8, 27]: 0
- Plant response rating, Kochia [8, 28]: 50
- Plant response rating, Barnyardgrass [9, 27]: 90
- Plant response rating, Barnyardgrass [9, 28]: 90
- Plant response rating, Blackgrass [10, 27]: 60
- Plant response rating, Blackgrass [10, 28]: 70
- Plant response rating, Corn [11, 27]: 20
- Plant response rating, Corn [11, 28]: 60
- Plant response rating, Foxtail, Giant [12, 27]: 90
- Plant response rating, Foxtail, Giant [12, 28]: 90
- Plant response rating, Pigweed [13, 27]: 0
- Plant response rating, Pigweed [13, 28]: 0
- Plant response rating, Ragweed [14, 27]: 10
- Plant response rating, Ragweed [14, 28]: 20
- Plant response rating, Ryegrass, Italian [15, 27]: 20
- Plant response rating, Ryegrass, Italian [15, 28]: 50
- Plant response rating, Wheat [16, 27]: 30
- Plant response rating, Wheat [16, 28]: 50
- Plant response rating, Barnyardgrass [17]: 80
- Plant response rating, Ducksalad [18]: 100
- Plant response rating, Rice [19]: 0
- Plant response rating, Sedge, Umbrella [20]: 0
- Plant response rating, Barnyardgrass [21]: 30
- Plant response rating (scale of 0 to 100), Barnyardgrass ([21]; 62 g ai/ha): 40
- Plant response rating (scale of 0 to 100), Barnyardgrass ([21]; 125 g ai/ha): 65
- Plant response rating (scale of 0 to 100), Barnyardgrass ([21]; 250 g ai/ha): 75
- Plant response rating, Ducksalad [22]: 30
- Plant response rating (scale of 0 to 100), Ducksalad ([22]; 62 g ai/ha): 60
- Plant response rating (scale of 0 to 100), Ducksalad ([22]; 125 g ai/ha): 80
- Plant response rating (scale of 0 to 100), Ducksalad ([22]; 250 g ai/ha): 95
- Plant response rating, Rice [23]: 0
- Plant response rating (scale of 0 to 100), Rice ([23]; 62 g ai/ha): 0
- Plant response rating (scale of 0 to 100), Rice ([23]; 125 g ai/ha): 0
- Plant response rating (scale of 0 to 100), Rice ([23]; 250 g ai/ha): 0
- Plant response rating, Sedge, Umbrella [24]: 0
- Plant response rating (scale of 0 to 100), Sedge, Umbrella ([24]; 62 g ai/ha): 0
- Plant response rating (scale of 0 to 100), Sedge, Umbrella ([24]; 125 g ai/ha): 0
- Plant response rating (scale of 0 to 100), Sedge, Umbrella ([24]; 250 g ai/ha): 0

Source: US12077503B2, “Substituted cyclic amides and their use as herbicides” (FMC CORPORATION, priority 2015, dated 2024)
